{"source": "patent US20050095280A1", "about": "“Single-component pH-sensitive liposomes of reduced solid-to-liquid phase transition temperatures” (Michalakis Savva, priority 2003, published 2005)", "system": "B16F0 melanoma cells", "assay": "Transfection activity in B16F0 melanoma cells", "type": "cell-based", "conditions": "in the absence of helper lipid DOPE", "source_text": "FIG. 2 Transfection activity of 1,3lb3 and other commercially available cationic lipids in B16F0 melanoma cells. Lif/d stands for Lipofectamine/DOPE. The data are the average of six wells two independent experiments (n=3×2).\nFIG. 3 Transfection activity of 1,3lb3 (in the absence of DOPE) -a dipalmitoyl analogue with fluid lamellar phases at physiological pH and temperature-against B16F0 tumor melanoma cells. The plasmid DNA consisted of an EGFP reporter gene driven by the SV40 early promoter, cloned into a pUC21 vector (CloneTech Labs).\nFIG. 8 Transfection activity as tested by X-gal of cationic lipids against B16F0 melanoma cells in the absence of serum. The (+/−) ratio is fixed to 2. A. lb1 B. lb2 C. lb3 D. lb4 E. lb5"}
{"smiles": "CCCCCCCCCCCCCCCC(=O)NCC(CNC(=O)CCCCCCCCCCCCCCC)OC(=O)N(CCN(C)C)CCN(C)C", "note": "[13lb3, N,N′-dihexadecanoyl-1,3-diaminopropyl-2-carbamoyl-[bis-(2-dimethylaminoethane)]]", "values": [{"measurement": "Transfection activity", "result": "efficient transfection activity"}]}
